Laboratory results from patent US20060079453A1, “Hla binding peptides and their uses” (priority 2002, published 2006).
No end group written: not given here.

How the values were obtained:
Test in all cases: biochemical
Assay type in all cases: binding
HLA-DR DRB1*0101 (DR1) = HLA-DR DRB1*0101 (DR1) (Homo sapiens, UniProt P01903+P01911, A100R/D57E/F55L/F60I/F76Y/I96L/L162R/M171V/P40L/Q125E/R42F/V115G/Y59C); conditions: DRB1 *0101
HLA-DR DRB1*1302 (DR13) = HLA-DR DRB1*1302 (DR13) (Homo sapiens, UniProt P01903+P01911, A100E/A169T/K41T/L162R/M171V/P40S/Q125H/Q178H/Q39Y/Q99D/R42S/S66N/T262R/V115G/W38E/Y61H); conditions: DRBI *1302
HLA-DR DRB3*0101 (DR52) = HLA-DR DRB3*0101 (DR52) (Homo sapiens, UniProt P01903+P79483)
HLA-DR DRB1*0901 (DR9) = HLA-DR DRB1*0901 (DR9) (Homo sapiens, UniProt P01903+P01911, A100R/A103E/D57H/D86V/F55Y/F60I/F76Y/I96F/K127E/L162R/M171V/P40D/Q125H/Q99R/R33Q/R42F/S133A/S66N/T210M/V115G/W38K/Y107V/Y59G/Y89S); conditions: DRB1 *0901
HLA-DR DRB1*0301 (DR3) = HLA-DR DRB1*0301 (DR3) (Homo sapiens, UniProt P01903+P01911, A100K/A102G/A103R/A169T/F55Y/I96L/K41T/L162R/M171V/P40S/Q125H/Q178H/Q39Y/R42S/S66N/T106N/T262R/W38E/Y61H)
HLA-DR DRB4*0101 (DR53) = HLA-DR DRB4*0101 (DR53) (Homo sapiens, UniProt P01903+P13762, G164S); conditions: DRB4 *0101
HLA-DR DRB1*0405 (DR4) = HLA-DR DRB1*0405 (DR4) (Homo sapiens, UniProt P01903+P01911, A100R/A169T/D86S/F76Y/I96L/K127E/L162R/M171V/N62H/P40V/Q125Y/R42H/S133A/S149N/S66Y/V115G/V209L/W38E); conditions: DRB1 *0405
HLA-DR DRB5*0101 (DR51) = HLA-DR DRB5*0101 (DR51) (Homo sapiens, UniProt P01903+Q30154); conditions: DRB5 *0101
HLA-DR DRB1*0701 (DR7) = HLA-DR DRB1*0701 (DR7) (Homo sapiens, UniProt P01903+P01911, A100R/A102G/A103Q/D57E/D86V/E43K/F76Y/K127E/L162R/M171V/P40G/Q125H/Q99D/R33Q/R42Y/R54Q/S133A/S66F/T210M/V115G/Y107V/Y59L/Y89S); conditions: DRB1 *0701
HLA-DR DRB1*1501 (DR15) = HLA-DR DRB1*1501 (DR15) (Homo sapiens, UniProt P01903+P01911); conditions: DRBI *1501
HLA-DR DRB1*0802 (DR8) = HLA-DR DRB1*0802 (DR8) (Homo sapiens, UniProt P01903+P01911, A100R/A103L/A169T/F76Y/H45Y/I96F/K41T/L162R/M171V/P40S/Q125H/Q178H/Q39Y/Q99D/R218S/R42G/S66Y/V115G/W38E)
HLA-DR DRB1*0401 (DR4) = HLA-DR DRB1*0401 (DR4) (Homo sapiens, UniProt P01903+P01911, A100K/A169T/F76Y/I96L/K127E/L162R/M171V/N62H/P40V/Q125Y/R42H/S133A/S149N/S66Y/V115G/V209L/W38E); conditions: DRB1 *0401
HLA-DR DRB1*1101 (DR11) = HLA-DR DRB1*1101 (DR11) (Homo sapiens, UniProt P01903+P01911, A100R/A169T/A87E/I96F/K41T/L162R/M171V/P40S/Q125H/Q178H/Q39Y/Q99D/R42S/S66Y/T262R/V115G/W38E); conditions: DRB1 *1101
Chain of HLA-DR DRB1*1101 (DR11) (P01903 26-254 limits assumed, other chains not shown): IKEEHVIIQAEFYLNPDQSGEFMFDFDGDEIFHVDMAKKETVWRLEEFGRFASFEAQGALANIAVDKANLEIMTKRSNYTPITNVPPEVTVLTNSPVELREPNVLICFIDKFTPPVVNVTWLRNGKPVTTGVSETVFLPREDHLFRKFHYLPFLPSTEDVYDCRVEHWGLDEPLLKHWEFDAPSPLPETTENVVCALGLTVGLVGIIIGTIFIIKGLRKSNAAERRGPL

Chain of HLA-DR DRB1*1302 (DR13) (P01903 26-254 limits assumed, other chains not shown): as above
Chain of HLA-DR DRB1*0301 (DR3) (P01903 26-254 limits assumed, other chains not shown): as above

Sequence | IC50 (HLA-DR DRB1*0101 (DR1)) | IC50 (HLA-DR DRB1*1302 (DR13)) | IC50 (HLA-DR DRB3*0101 (DR52)) | IC50 (HLA-DR DRB1*0901 (DR9)) | IC50 (HLA-DR DRB1*0301 (DR3)) | IC50 (HLA-DR DRB4*0101 (DR53)) | IC50 (HLA-DR DRB1*0405 (DR4)) | IC50 (HLA-DR DRB5*0101 (DR51)) | IC50 (HLA-DR DRB1*0701 (DR7)) | IC50 (HLA-DR DRB1*1501 (DR15)) | IC50 (HLA-DR DRB1*0802 (DR8)) | IC50 (HLA-DR DRB1*0401 (DR4)) | IC50 (HLA-DR DRB1*1101 (DR11))
HLKRYYGRILHYLKA | 0.026 µM | 0.868 µM | 6.61 µM | 2.9 µM | 3.71 µM | 0.022 µM | 0.086 µM | 0.0023 µM | 0.214 µM | 0.00069 µM | 0.237 µM |  | 
YLVTGERGFFYTDKT | 3.26 µM | 17.4 µM | 0.359 µM | 2.91 µM |  | 30.8 µM | > 30.1 µM | > 28.4 µM |  | > 25.6 µM | > 25.8 µM | > 20.5 µM | 16.8 µM
QCQKLLWQLNGRLEY |  |  | 8.71 µM | 4.67 µM | 133 µM | 0.209 µM | 1 µM | 0.924 µM | 3.7 µM |  | 2.52 µM | 0.36 µM | 1.64 µM
LFFYRKSVWSKLQSI | 0.019 µM | 0.121 µM | 5.91 µM |  | 30.2 µM | 1.93 µM | 0.084 µM | 0.018 µM | 0.084 µM | 0.02 µM | 0.065 µM | 0.913 µM | 0.012 µM
RSSNCQSQKLLWQLN | 2.05 µM | 1.96 µM | 68.8 µM |  | 57.9 µM | 0.027 µM | 4.01 µM |  |  | 2.96 µM | 6.94 µM | 0.595 µM | > 60.6 µM
QTQKLLWQLNGRLEY | 0.032 µM | 0.121 µM | 6.58 µM |  | 3.55 µM | 0.088 µM | 0.086 µM |  | 3.1 µM | 0.02 µM | 2.04 µM | 0.055 µM | 20.7 µM
RMSSLHLKRYYGRIL | 0.275 µM | 2.53 µM | > 26.2 µM | 15 µM |  | 2.26 µM | 0.034 µM | 0.491 µM | 0.283 µM | 0.0013 µM | 0.277 µM | 0.993 µM | 1.03 µM
SFLQNPQTSLTFSES |  | 0.121 µM | 0.864 µM |  | 2.39 µM |  | 9.56 µM |  | 6.2 µM | 1.51 µM | > 33.3 µM | 7.78 µM | > 15.4 µM
FTRGKRMSSLHLKRY | 0.013 µM | 10.2 µM | 18.8 µM |  | 3.3 µM | 2.03 µM | 0.484 µM | 0.084 µM |  |  | 0.553 µM | 1.01 µM | 0.081 µM
SWLEPVQFLRSVFAN | 0.011 µM | 4.32 µM | > 270 µM | 4 µM | 167 µM |  | 0.883 µM | 4.81 µM | 0.589 µM |  | 3.42 µM |  | 
YLVCGERGFFYTDKT |  | 1.01 µM | 0.616 µM |  | 11.8 µM | 48.1 µM | > 30.1 µM | > 28.4 µM | 92.3 µM | > 25.6 µM | > 54.4 µM | > 20.5 µM | > 60.6 µM
LYFVKVDVTGAYDTI | 0.016 µM | 0.079 µM | 0.016 µM |  | 0.0096 µM | 0.022 µM | 0.014 µM | 4.96 µM | 5.89 µM | 9.75 µM | 0.413 µM | 0.0028 µM | 0.221 µM
LGFLQRSSNCQSQKL |  | 0.131 µM | > 1750 µM |  | 4.89 µM | 0.124 µM | 0.228 µM | 0.508 µM | 0.305 µM |  | 0.405 µM | 0.0081 µM | 0.604 µM
RTGQIFKQTYSKFDT | 1.55 µM | 0.066 µM | 14.7 µM |  | 20.3 µM | 0.201 µM | 0.04 µM | 0.064 µM | 0.046 µM | 0.155 µM | 16.4 µM | 1.68 µM | 6.96 µM
FLRSVFANSLVYGAS | 0.0043 µM | 0.0056 µM | 158 µM | 15.1 µM |  |  | 0.059 µM | 0.141 µM | 0.016 µM | 0.013 µM | 13.4 µM | 0.0067 µM | 0.973 µM
SNLELLRICLLLIQS |  | 0.773 µM | 17 µM |  | 61.9 µM | 0.164 µM | 1.11 µM | > 11.8 µM | 1.22 µM | 0.09 µM | 19.8 µM |  | > 15.4 µM
